Experimental data as given in patent US11058717B2, “Application of substances containing AuCs in preparing medicine for preventing and treating Alzheimer's disease” (Shenzhen Profound-View Pharma Tech Co., Ltd, priority 2017, dated 2021).

How the values were obtained:
[1] = test system: SH-SY5Y neuroblastoma cell line; experiment: Aβ induced AD cell model, cell viability by CCK-8; type: cell-based; conditions: 0.01-20 ppm (L-NIBC 20 ppm); 20 μM Aβ(1-40), 24 h
Procedure: The cell viability was used as an index in the experiment of this embodiment. […] The cells used in the experiment were SH-SY5Y neuroblastoma cell line. […] Specific method:
1) SH-sy5y cells (cells had passed to the sixth generation) in logarithmic growth phase were diluted with complete medium (MEM+10% FBS+1% penicillin-streptomycin) to get a cell suspension in a density of 5×10^4/mL. The suspension was inoculated 200 μL per well into a 96-well plate, and cultivated in an incubator with 5% CO2 at 37° C. A sample was added when the cells attached to the wells.
2) 100 μL ligand-modified AuCs samples or ligand-modified gold nanoparticles samples, at different particle sizes and at concentrations of 0.04 ppm, 0.4 ppm, 4 ppm, 20 ppm, 40 ppm and 80 ppm respectively, which were dissolved by maintenance medium (MEM+2% FBS+1% penicillin-streptomycin) were added into the incubated suspension obtained from Step 1). After incubating in the incubator for 2 h, 100 μL 80 μM Aβ(1-40) was added, and then the mixture was incubated in the incubator for 24 h. […] The culture medium was removed, maintenance medium (MEM) containing 10% CCK-8 at 100 μL/well was added and was incubated for 4 h, the absorbance of each well at 450 nm was measured to reflect the prevention and treatment effects of ligand-modified AuCs on Aβ(1-40) lesion.

α-syn = target: T1, α-syn (Homo sapiens, UniProt P37840); experiment: In vitro α-syn aggregation kinetics (ThT fluorescent labeling); type: biochemical; conditions: L-NIBC only, 1.0 and 10.0 ppm; 35 μM α-syn, 37° C.
T1 construct: purchased Bachem Corp
Text: Thioflavin T (abbreviation: ThT) is a dye for dyeing amyloid fibers specifically. […] When it encounters amyloid polypeptide or protein with a fiber structure, it will immediately couple with the amyloid polypeptides or proteins and its fluorescence intensity will increase exponentially. For this reason, ThT is widely used as markers to monitor amyloidosis of peptides or proteins. This embodiment utilizes ThT fluorescent labeling method to monitor the kinetics process of fibrosis aggregation of α-syn with the existence of AuCs. The specific experiment method was as follows:
Pretreatment of α-syn monomers: Freeze-dried powder (Bachem Corp.) of α-syn was dissolved in HFIP to obtain a 1 g/L α-syn solution. The solution was incubated at room temperature for 2-4 h after sealing, then blowed to dry HFIP by high-purity nitrogen in a fume hood. […]
Sample preparation and detection: Ligand-modified AuCs in different concentrations listed in Table 1 were added to 35 μM α-syn PBS solutions respectively, and incubated continuously in a 96-well plate at 37° C., by ThT fluorescent labeling method, and were monitored the fluorescence intensity by microplate reader once every 10 minutes. The kinetic process of α-syn aggregation was characterized through the change of fluorescence intensity of ThT. […]

Aβ(1-40) = target: T2, Aβ(1-40) (Homo sapiens, UniProt P05067); experiment: AFM topography of Aβ(1-40) after coincubation for 48 h; type: biochemical; conditions: coincubated for 48 h
T2 construct: Freeze-dried powder of amyloid polypeptide Aβ(1-40) (Invitrogen Corp.); purchased Invitrogen Corp
T2 sequence (P05067 672-711 limits assumed): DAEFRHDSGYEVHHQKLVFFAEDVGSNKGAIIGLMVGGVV
Procedure: Panel A is the AFM topography after Aβ(1-40) was incubated alone for 48 h. Panel B is an AFM topography after Aβ(1-40) was coincubated with L-NIBC for 48 h. Panel C and panel D are AFM topographies after Aβ(1-40) was coincubated with gold nanoparticles with an average particle size of 6.0 nm and 3.6 nm respectively (modified with L-NIBC) for 48 h. And panel E is an AFM topography after Aβ(1-40) was coincubated with AuCs in an average particle size of 1.8 nm (modified with L-NIBC) for 48 h.

## CC(C)C(=O)N[C@@H](CS)C(=O)O [L-NIBC, N-isobutyryl-L-cysteine]
[1]
  effect on cell viability in Aβ induced AD cell model: did not improve cell viability
α-syn
  effect on kinetics of α-syn aggregation: did not have an obvious effect
Aβ(1-40)
  Aβ(1-40) fibers in AFM topography: no obvious effect on the formation of Aβ(1-40) fibers
